Data published in patent US9943501B2 (KOJUN JAPAN CO., LTD., priority 2014, dated 2018).

Experiments:
[1] = system: C57BL/6J mice fed with a high-fat diet; test: Anti-obesity effect (body weight) on dietary-induced obesity mouse model; assay type: in vivo; details: 12 weeks; for body weight gain inhibited, with respect to the body weight gain of the control group attributed to the high-calorie diet: once a day into the stomach, 84th day
Experimental: The 5H4PB obtained in Example 6 administered to mice fed with a high-fat diet to verify its anti-obesity effect. Five-week-old male C57BL/6J mice (supplied by Charles River Laboratories Japan, Inc.) were individually raised (one per cage) under environmental conditions involving a temperature of 20 to 26° C., a humidity of 35 to 75%, and 12-hour illumination (7:00 to 19:00). After acclimatization for approximately 1 week, the mice were divided into 6 groups each involving 6 to 8 individuals. Of the test groups, a normal group was fed with a normal solid diet CRF1 (a product of Oriental Yeast Co., Ltd., 3.57 kcal/g) during the test period, and a control group and drug administration groups were fed with a high-calorie solid diet D12492 (a product of Research Diets, Inc., 5.24 kcal/g) during the test period. The diets were freely taken, and water was also freely taken from water supply bottles.
The test substance 5H4PB (produced in Example 6) or a positive control substance rosiglitzaone (a product of Wako Pure Chemical Industries, Ltd.) was administered once a day for 12 weeks at the predetermined dose shown in Table 2 to the mice in each drug administration group. The rosiglitazone is a selective PPARγ ligand and is a substance having the effect of lowering the concentrations of glucose, fatty acid, and insulin in blood through binding to PPARγ. For the administration, body weight measurement was carried out once a week to calculate the dose to each individual. 5H4PB and rosiglitazone were each suspended in a 0.5 w/v % aqueous methylcellulose solution and diluted with the same aqueous solution to adjust the administration dose to 10 mL/kg. Then, each substance was forced-administered into the stomach using a syringe and a flexible stomach tube. […]
From the start of the test (administration), the body weight of each individual was measured at a frequency of once a week, and the average body weight of each test group was determined. […]

[2] = molecular target: T1, human-derived PPARγ ligand-binding domain (Homo sapiens, UniProt P37231); test: PPARγ activation test (GAL4 chimera / luciferase reporter in CV-1 cells); assay type: cell-based; details: for PPARγ ligand activity, ratio (%) of the activity of each synthesized product to the activity of the control substance (DMSO): control = 100
T1 construct: expressed in transfected cells; host or cells: CV-1 cells (African green monkey kidney-derived)
T1 sequence (P37231 238-503 limits assumed): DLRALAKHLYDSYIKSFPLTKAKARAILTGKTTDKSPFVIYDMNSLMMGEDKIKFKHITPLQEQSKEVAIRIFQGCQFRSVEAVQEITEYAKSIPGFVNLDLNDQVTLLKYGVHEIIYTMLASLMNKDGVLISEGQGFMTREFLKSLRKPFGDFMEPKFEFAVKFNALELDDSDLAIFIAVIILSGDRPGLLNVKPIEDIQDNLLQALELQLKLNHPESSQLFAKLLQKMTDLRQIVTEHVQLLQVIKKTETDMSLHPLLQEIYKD
Experimental: A measurement method for the PPAR activation test in Examples below were conducted as described below.
(1) PPARγ Activation Test
A plasmid pM-PPARγ for the expression of a chimeric protein composed of a human-derived PPARγ ligand-binding domain and a DNA-binding domain of a yeast-derived GAL4 transcription factor, and a plasmid p4×UASg-tk-luc containing a Cypridina-derived luciferase structural gene linked downstream of a GAL4 responsive sequence designed such that its expression was controlled by this chimeric protein, were prepared. Also, a Renilla-derived luciferase expression plasmid pRL-CMV having a viral expression promoter for constitutive intracellular expression was prepared as a plasmid for the correction of transfection efficiency. On the other hand, DMEM containing 10% FBS was used as a medium for CV-1 cells (African green monkey kidney-derived). The CV-1 cells were seeded at 4.5×10^5 cells over a 100-mm Petri dish and cultured in an incubator at 37° C. in a 5% CO2 environment.
(1-2) Transformation of CV-1 Cell
The CV-1 cells thus cultured for 24 hours were cotransfected with 2.0 μg of pM-PPARγ, 4.0 μg of p4×UASg-tk-luc, and 0.04 μg of pRL-CMV to transform the CV-1 cells. The transformation was carried out by the liposome method using LipofectAMINE(R) Reagent (a product of Invitrogen Corp.). After the transformation operation, the cells were cultured at 37° C. for 3.5 hours in a 5% CO2 environment.
(1-3) Addition of Test Sample
The CV-1 cells thus incubated were recovered by trypsin treatment, and […] thereof was inoculated at a concentration of 1×10^5 cells/mL to a 96-well plate. Each test sample was diluted with DMEM containing 4% FBS to adjust its concentration to twice the final concentration, and […] thereof was added to the 96-well plate mentioned above. DMSO was used as a control substance. After the addition of the test sample or the control substance (DMSO), the mixture was incubated at 37° C. for 24 hours in a 5% CO2 environment.
(1-4) Measurement of Luciferase Activity
The luciferase activity was measured using Dual-Luciferase(R) Reporter Assay System (a product of Promega K.K.). The culture solution was removed from the 96-well plate. The cells were washed with PBS(−), and moisture was removed therefrom using a paper towel. To the cells, […] of a cell lysis solution (Passive Lysis Buffer) was added, and the 96-well plate was shaken for 15 minutes. The cell extract was transferred at […] to a 96-well luminoplate. A luminescent substrate solution was added thereto at […]. The luminescence intensity based on the luciferase was measured for a measurement time set to 10 seconds using a luminometer (Micro Lumat Plus, a product of Berthold Japan Co., Ltd.).
The PPARγ-activating effect of the test sample was evaluated on the basis of a ratio (%) relative to controls. In order to correct transfection efficiency, the measured Cypridina luciferase activity value (A) was divided by the measured Renilla luciferase activity value (B) to determine a value (A/B). The average A/B value of the control group was calculated and defined as 100. The A/B value of the test sample was calculated, and the ratio (%) of this value to the average value of the controls was used as the ability of the test sample to activate PPARγ.
Their PPARγ ligand activity was measured in the same way as in Example 7 except that the incubation time after the test sample addition was set to 48 hours. The values shown in the table below and the ordinate of the drawing depict the ratio (%) of the activity of each synthesized product to the activity of the control substance (DMSO). In Table 1 and FIG. 13, these various butenolide compounds used as test samples were each indicated by the functional group of R^2 in the formula (1).

## O=C1C=C(c2ccccc2)C(O)O1 (stereo not shown) [5H4PB, 5-hydroxy-4-phenylbutenolide]
[1]; 0.037 μg/kg/day and 0.01 mg/kg/day
  anti-obesity effect (overall): high anti-obesity effect
[1]; 0.037 μg/kg/day
  body weight gain inhibited, with respect to the body weight gain of the control group attributed to the high-calorie diet: 25.8%
[1]; 0.01 mg/kg/day
  body weight gain inhibited, with respect to the body weight gain of the control group attributed to the high-calorie diet: 27.8%
[2]; Example 8, incubation 48 hours, Table 1 and FIG. 13
  PPARγ ligand activity of butenolide compounds (in words): high activity in a low concentration range
[2]; final concentration 3.5 μM, incubation 24 hours, FIG. 12
  PPARγ ligand activity of synthesized product: high PPARγ ligand activity
[2]; test sample concentration 0.032 μg/mL, incubation 48 hours
  PPARγ ligand activity, ratio (%) of the activity of each synthesized product to the activity of the control substance (DMSO): 100%
[2]; test sample concentration 0.08 μg/mL, incubation 48 hours
  PPARγ ligand activity, ratio (%) of the activity of each synthesized product to the activity of the control substance (DMSO): 80%
[2]; test sample concentration 0.16 μg/mL, incubation 48 hours
  PPARγ ligand activity, ratio (%) of the activity of each synthesized product to the activity of the control substance (DMSO): 120%
[2]; test sample concentration 0.4 μg/mL, incubation 48 hours
  PPARγ ligand activity, ratio (%) of the activity of each synthesized product to the activity of the control substance (DMSO): 120%
[2]; test sample concentration 0.8 μg/mL, incubation 48 hours, * = twice or more vs control, p<0.05
  PPARγ ligand activity, ratio (%) of the activity of each synthesized product to the activity of the control substance (DMSO): 220* %
[2]; test sample concentration 2 μg/mL, incubation 48 hours, * = twice or more vs control, p<0.05
  PPARγ ligand activity, ratio (%) of the activity of each synthesized product to the activity of the control substance (DMSO): 370* %
[2]; test sample concentration 4 μg/mL, incubation 48 hours, * = twice or more vs control, p<0.05
  PPARγ ligand activity, ratio (%) of the activity of each synthesized product to the activity of the control substance (DMSO): 520* %
[2]; test sample concentration 10 μg/mL, incubation 48 hours, * = twice or more vs control, p<0.05
  PPARγ ligand activity, ratio (%) of the activity of each synthesized product to the activity of the control substance (DMSO): 710* %
